Test results reported in patent US7115279B2, “Pharmaceutical compositions of cholesteryl ester transfer protein inhibitors” (priority 2000, dated 2006).
Values belong to the molecule of their own block, whether it stands above or below them.

Legend:
Format in all cases: physicochemical
[1] = in vitro dissolution test, microcentrifuge method, PBS (Example 42, Drugs 4-9 dispersions); settings: PBS pH 6.5, 37° C.; for Cmax: phosphate-buffered saline, read-out: Cmax, 90
Method: In this method, 15 mg of each SDD was added to a 2-mL microcentrifuge tube. The tube was placed in a 37° C. sonicating bath, and 1.5 mL of a phosphate-buffered saline (PBS) solution at pH 6.5 and 290 mOsm/kg) was added, resulting in a TCmax of 1000 μg/mL. The samples were quickly mixed using a combination of vortex mixer and sonication for about 90 seconds. The samples were centrifuged at 13,000 G at 37° C. for 1 minute. The resulting supernatant solution was then sampled and diluted 1:6 (by volume) with methanol and then analyzed by HPLC. The tubes were then mixed on the vortex mixer and allowed to stand undisturbed at 37° C. until the next sample. Samples were collected at 4, 10, 20, 40, and 90 minutes.
For Controls 6–11, an in vitro dissolution test was performed using the procedure described above, except that 1.5 mg of non-crystalline drug was placed in a microcentrifuge tube and mixed with 1.5 mL of PBS.

[2] = in vitro dissolution test, microcentrifuge method, MFDS (Example 5, Drug 1 dispersions); settings: model-fasted duodenal solution (MFDS), pH 6.5, maximum concentration of Drug 1 in solution during the 90-minute test, TCmax 100 or 500 μg/mL
Method: The spray-dried dispersions of Examples 1 to 4 were evaluated in in vitro dissolution tests using a microcentrifuge method. In this method, 1 mg of the spray-dried dispersions was added to a 1.5-mL microcentrifuge tube. The tube was placed in a 37° C. sonicating bath, and 1 mL of a model-fasted duodenal solution (MFDS) (comprising sodium taurocholate/1-palmitoyl-2-oleoyl-sn-glycero-3-phosphocholine (NaTC-POPC) in phosphate-buffered saline (PBS) at pH 6.5 and 290 mOsm/kg) was added. The samples were quickly mixed using a combination of vortex mixer and sonication for about 90 seconds. The theoretical maximum concentration (“TCmax”) of drug for Examples 1–3 if all the drug dissolved was 100 μg/mL, while for Example 4 the TCmax was 500 μg/mL. The samples were centrifuged at 13,000 G at 37° C. for 1 minute. The resulting supernatant solution was then sampled (100 μL) and diluted with 200 μL methanol and then analyzed by HPLC. The tubes were then mixed on the vortex mixer and allowed to stand undisturbed at 37° C. until the next sample. Samples were collected at 3, 10, 30, 60, and 90 minutes and for Examples 1 and 2 at 1200 minutes.
For Control 1, an in vitro test was performed using the procedure described above, except that 0.18 mg of crystalline Drug 1 was placed in a microcentrifuge tube and mixed with 1.8 mL of MFDS.

[3] = in vitro dissolution test, microcentrifuge method, PBS (Example 8, Drug 2 dispersions); settings: for Drug 2 Concentration / AUC: PBS pH 6.5, 37° C.; for Drug 2 Concentration: dose about 1000 μg/mL
Method: The spray-dried dispersions of Examples 6 and 7 were evaluated in an in vitro dissolution test using a microcentrifuge method. In this test, the spray-dried dispersion was added to a microcentrifuge tube for a Drug 2 dose of about 1000 μg/mL (7.2 mg for Example 6, 18 mg for Example 7). The tube was placed in a 37° C. sonicating bath, and 1.8 mL phosphate buffered saline (PBS) at pH 6.5 and 290 mOsm/kg was added. The samples were quickly mixed using a vortex mixer for about 60 seconds. The samples were centrifuged at 13,000 G at 37° C. for 1 minute. The resulting supernatant solution was then sampled and diluted 1:6 (by volume) with methanol and then analyzed by high-performance liquid chromatography (HPLC). The contents of the tubes were mixed on the vortex mixer and allowed to stand undisturbed at 37° C. until the next sample was taken. Samples were collected at 4, 10, 20, 40, 90, and 1200 minutes. […]

[4] = in vitro dissolution test, microcentrifuge method, PBS (Example 29, Drug 3 dispersions); settings: phosphate-buffered saline, pH 6.5, TCmax 400 μg/mL, read-out: Cmax, 90
Method: The spray-dried dispersions of Examples 21–28 were evaluated in an in vitro dissolution test using a microcentrifuge method. In this method, 7.2 mg of each SDD was added to a 2-mL microcentrifuge tube. The tube was placed in a 37° C. sonicating bath, and 1.8 mL of a phosphate-buffered saline (PBS) solution at pH 6.5 and 290 mOsm/kg was added, resulting in a TCmax of 400 μg/mL. The samples were quickly mixed using a combination of vortex mixer and sonication for about 90 seconds. The samples were centrifuged at 13,000 G at 37° C. for 1 minute. The resulting supernatant solution was then sampled and diluted 1:6 (by volume) with methanol and then analyzed by HPLC. The tubes were then mixed on the vortex mixer and allowed to stand undisturbed at 37° C. until the next sample. Samples were collected at 4, 10, 20, 40, 90 and 1200 minutes.
For Control 5, an in vitro dissolution test was performed using the procedure described above, except that 0.72 mg of non-crystalline Drug 3 was placed in a microcentrifuge tube and mixed with 1.8 mL of PBS.

[5] = in vitro dissolution test, receptor solution MFDS (Example 17, Drug 2 dispersions); settings: TCmax 400 or 100 μg/mL, read-out: Cmax, 90
Method: The spray-dried dispersions of Examples 6 and 7 were evaluated in an in vitro dissolution test using a microcentrifuge method. In this test, the spray-dried dispersion was added to a microcentrifuge tube for a Drug 2 dose of about 1000 μg/mL (7.2 mg for Example 6, 18 mg for Example 7). The tube was placed in a 37° C. sonicating bath, and 1.8 mL phosphate buffered saline (PBS) at pH 6.5 and 290 mOsm/kg was added. The samples were quickly mixed using a vortex mixer for about 60 seconds. The samples were centrifuged at 13,000 G at 37° C. for 1 minute. The resulting supernatant solution was then sampled and diluted 1:6 (by volume) with methanol and then analyzed by high-performance liquid chromatography (HPLC). The contents of the tubes were mixed on the vortex mixer and allowed to stand undisturbed at 37° C. until the next sample was taken. Samples were collected at 4, 10, 20, 40, 90, and 1200 minutes.
The dispersions of Examples 9–16 were also evaluated in an in vitro dissolution test using receptor solutions of MFDS using the procedures outlined in Example 8.
For Control 3, an in vitro dissolution test was performed using the procedure described above except that 0.72 mg of crystalline Drug 2 was used.

Compound: CCOC(=O)N1c2cc(CC)c(CC)cc2[C@@H](N(Cc2cc(C(F)(F)F)cc(C(F)(F)F)c2)C(=O)OC)C[C@H]1C [Control 7, [2R,4S] 4-[(3,5-bis-trifluoromethyl-benzyl)-methoxycarbonyl-amino]-6,7-diethyl-2-methyl-3,4-dihydro-2H-quinoline-1-carboxylic acid ethyl ester]
Cmax ([1]; TCmax 1000 μg/mL): < 1000 ng/mL

Compound: CCOC(=O)N1c2cc(OC)c(OC)cc2[C@@H](N(Cc2cc(C(F)(F)F)cc(C(F)(F)F)c2)C(=O)OC)C[C@H]1C [Control 6, [2R,4S] 4-[(3,5-bis-trifluoromethyl-benzyl)-methoxycarbonyl-amino]-6,7-dimethoxy-2-methyl-3,4-dihydro-2H-quinoline-1-carboxylic acid ethyl ester]
Cmax ([1]; TCmax 1000 μg/mL): < 1000 ng/mL

Compound: CCCOC(=O)N1c2ccc(C(F)(F)F)cc2[C@@H](N(Cc2cc(C(F)(F)F)cc(C(F)(F)F)c2)C(=O)OC)C[C@H]1CC [Control 5, [2R,4S] 4-[(3,5-bis-trifluoromethyl-benzyl)-methoxycarbonyl-amino]-2-ethyl-6-trifluoromethyl-3,4-dihydro-2H-quinoline-1-carboxylic acid propyl ester]
Cmax [4]: < 100 ng/mL

Compound: CCOC(=O)N1c2cc3c(cc2[C@@H](N(Cc2cc(C(F)(F)F)cc(C(F)(F)F)c2)C(=O)OC)C[C@H]1C)CCC3 [Control 8, [2R,4S] 4-[(3,5-bis-trifluoromethyl-benzyl)-methoxycarbonyl-amino]-2-methyl-2,3,4,6,7,8-hexahydro-cyclopenta[g]quinoline-1-carboxylic acid ethyl ester]
AUC ([1]; Time 0 min): 0 µg·min/mL
Concentration ([1]; Time 0 min): 0 ng/mL
Cmax ([1]; TCmax 1000 μg/mL): < 1000 ng/mL

The remaining lines, values ahead:

Cmax ([1]; TCmax 1000 μg/mL): < 1000 ng/mL
Compound: CC[C@@H]1C[C@H](N(Cc2cc(C(F)(F)F)cc(C(F)(F)F)c2)C(C)=O)c2cc(C(F)(F)F)ccc2N1C(=O)OC(C)C [Control 9, [2R,4S] 4-[acetyl-(3,5-bis-trifluoromethyl-benzyl)-amino]-2-ethyl-6-trifluoromethyl-3,4-dihydro-2H-quinoline-1-carboxylic acid isopropyl ester]

Cmax, 90 ([1]; TCmax 1000 μg/mL): <1000 ng/mL
Compound: CC1(C)Cc2nc(C3CCCC3)c([C@@H](F)c3ccc(C(F)(F)F)cc3)c(-c3ccc(F)cc3)c2[C@@H](O)C1 [Control 11, [3S,5S] 2-cyclopentyl-4-(4-fluoro-phenyl)-3-[fluoro-(4-trifluoromethyl-phenyl)-methyl]-7,7-dimethyl-5,6,7,8-tetrahydro-quinolin-5-ol]

Cmax at 100 μg/mL [2]: 900 ng/mL
Compound: COC(=O)N(Cc1cc(C(F)(F)F)cc(C(F)(F)F)c1)[C@@H]1C[C@H](C2CC2)N(C(=O)OC(C)C)c2ccc(C(F)(F)F)cc21 [Control 1, [2R,4R] 4-[(3,5-bis-trifluoromethyl-benzyl)-methoxycarbonyl-amino]-2-cyclopropyl-6-trifluoromethyl-3,4-dihydro-2H-quinoline-1-carboxylic acid isopropyl ester]

Drug 2 Concentration ([3]; time 0 min): 0 µg/mL
Drug 2 Concentration ([3]; time 4 min): 6 µg/mL
Drug 2 Concentration ([3]; time 10 min): <1 µg/mL
Drug 2 Concentration ([3]; time 20 min): <1 µg/mL
Drug 2 Concentration ([3]; time 40 min): 3 µg/mL
Drug 2 Concentration ([3]; time 90 min): <1 µg/mL
Drug 2 Concentration ([3]; time 1200 min): <1 µg/mL
AUC ([3]; time 0 min): 0 µg·min/mL
AUC ([3]; time 4 min): 12 µg·min/mL
AUC ([3]; time 10 min): 30 µg·min/mL
AUC ([3]; time 20 min): 30 µg·min/mL
AUC ([3]; time 40 min): 60 µg·min/mL
AUC ([3]; time 90 min): 135 µg·min/mL
AUC ([3]; time 1200 min): 135 µg·min/mL
AUC90 ([3]; area under the aqueous concentration versus time curve after 90 minutes, PBS): 135 µg·min/mL
Cmax at 1000 μg/mL ([3]; phosphate buffered saline (PBS), pH 6.5, maximum concentration of Drug 2 in solution during the first 90 minutes, PBS): 6000 ng/mL
Compound: CCOC(=O)N1c2ccc(C(F)(F)F)cc2[C@@H](N(Cc2cc(C(F)(F)F)cc(C(F)(F)F)c2)C(=O)OC)C[C@H]1CC [Control 2, [2R,4S] 4-[(3,5-bis-trifluoromethyl-benzyl)-methoxycarbonyl-amino]-2-ethyl-6-trifluoromethyl-3,4-dihydro-2H-quinoline-1-carboxylic acid ethyl ester]

Cmax [5]: < 1000 ng/mL
Compound: CCOC(=O)N1c2ccc(C(F)(F)F)cc2[C@@H](N(Cc2cc(C(F)(F)F)cc(C(F)(F)F)c2)C(=O)OC)C[C@H]1CC [Control 3, [2R,4S] 4-[(3,5-bis-trifluoromethyl-benzyl)-methoxycarbonyl-amino]-2-ethyl-6-trifluoromethyl-3,4-dihydro-2H-quinoline-1-carboxylic acid ethyl ester]

Cmax ([1]; TCmax 1000 μg/mL): < 1000 ng/mL
Compound: COC(=O)N(Cc1cc(C(F)(F)F)cc(C(F)(F)F)c1)[C@H]1C[C@@H](C2CC2)N(C(=O)OC(C)C)c2ccc(C(F)(F)F)cc21 [Control 10, [2S,4S] 4-[(3,5-bis-trifluoromethyl-benzyl)-methoxycarbonyl-amino]-2-cyclopropyl-6-trifluoromethyl-3,4-dihydro-2H-quinoline-1-carboxylic acid isopropyl ester]
